Measurements from ChEMBL document CHEMBL1201862, “PubChem BioAssay data set” (2004).
Active and inactive are the calls of the source.

Tests used:
NS3 = NS3 (Hepatitis C virus, UniProt A3EZJ3); assay: NS3h DNA-binding inhibition IC50 – biochemical, fluorescence polarization, ChemBridge library, dose response (AID 743264)
[1] = viability loss in CEM21 cells – cell-based, plate reader, dry powder, cytotoxicity control, dose response (AID 687026); type: functional
Paired box protein Pax-8 = Paired box protein Pax-8 (Homo sapiens, UniProt Q06710); assay: PAX8 transcriptional activity inhibition in RMG-I – RMG-I cells, luciferase, cherry-pick, dose response (AID 687027); type: functional, cell-based;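 also: luciferase reporter driven by Pax8 target thyroperoxidase promoter measured by SteadyGlo luminescence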
Paired box protein Pax-8, sequence (Q06710 whole entry): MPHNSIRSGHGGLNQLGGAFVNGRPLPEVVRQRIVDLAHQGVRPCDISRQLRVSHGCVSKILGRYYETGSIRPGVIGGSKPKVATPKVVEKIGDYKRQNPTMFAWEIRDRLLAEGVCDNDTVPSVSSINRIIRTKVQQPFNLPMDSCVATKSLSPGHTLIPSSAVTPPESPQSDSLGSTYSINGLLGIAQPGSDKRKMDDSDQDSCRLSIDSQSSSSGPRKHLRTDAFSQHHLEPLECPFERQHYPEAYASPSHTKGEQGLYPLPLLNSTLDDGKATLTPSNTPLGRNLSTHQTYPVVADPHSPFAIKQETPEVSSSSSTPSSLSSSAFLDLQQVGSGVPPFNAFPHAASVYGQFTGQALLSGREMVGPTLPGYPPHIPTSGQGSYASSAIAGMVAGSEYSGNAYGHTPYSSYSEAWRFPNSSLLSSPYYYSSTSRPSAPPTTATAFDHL

[2] = toxicity toward immortalized ovarian surface epithelium – cell-based, plate reader, dry powder samples, cytotoxicity control for PAX8 inhibitor project, dose response (AID 743045); type: functional
[3] = OVCAR-3 cell viability loss – plate reader, dry powder samples, PAX8 inhibitor project, dose response (AID 743044); type: functional, cell-based
[4] = A549 cell cytotoxicity, dose response, cytotoxicity control, plate reader, cherry-pick, antagonist series (AID 743412); type: functional, cell-based
[5] = toxicity toward HepG2 liver cells – cell-based, plate reader, cherry-pick, antagonist series, cytotoxicity control, dose response (AID 743416); type: functional
[6] = IGROV1 cell killing – plate reader, dry powder samples, PAX8 inhibitor project, dose response (AID 743043); type: functional, cell-based; conditions: IGROV-1
[7] = blockers of bursicon-stimulated LGR2 cAMP reporter – cell-based, HEK293, CRE-luciferase reporter, cherry pick, set 2, dose response (AID 743343); type: functional;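 also: transfected cells were stimulated with diluted bursicon conditioned medium after compound addition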
[8] = blockade of melanocortin 4 receptor signaling – cell-based, plate reader, cherry pick, counter-screen for LGR2 antagonist project, dose response (AID 743444); type: functional;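 also: transfected HEK 293 cells stimulated with alpha-MSH peptide; potency of inhibitors of the alpha-MSH evoked signal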
[9] = OVCAR8 cell viability loss – plate reader, dry powder samples, PAX8 project, dose response (AID 743197); type: functional, cell-based; conditions: OVCAR-8
[10] = viability loss in HEK293 cells – cell-based, plate reader, cherry-picked samples, cytotoxicity control, dose response (AID 743446); type: functional
[11] = growth inhibition of yeast DHODH-expressing 3D7 parasites – SYBR Green, dry powder samples, dose response (AID 1159570); type: functional, cell-based;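 also: parasite growth measured after 72 hours of compound exposure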
[12] = toxicity to human HepG2 hepatoma cells – cell-based, plate reader, dry powder samples, cytotoxicity control, dose response (AID 1159569); type: functional;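 also: inhibitor potency with signal falling toward the positive control level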
[13] = P. falciparum Dd2 growth inhibitors, dose response, SYBR Green, cherry-picked samples (AID 1159567); type: functional, cell-based
[14] = Dd2 malaria parasite growth inhibition potency – SYBR Green, dry powder samples, dose response (AID 1159566); type: functional, cell-based;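 also: potency for growth inhibition with lower SYBR green DNA signal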
[15] = growth inhibition of PfATP4-mutant resistant parasites – NITD609-resistant line, SYBR Green, dry powder, dose response (AID 1159571); type: functional, cell-based;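 also: parasites synchronized at ring stage by sorbitol before testing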
[16] = A2780 cell killing – plate reader, dry powder samples, cytotoxicity control, dose response (AID 743046); type: functional, cell-based
[17] = CTGF mRNA reduction in DLD1 cells – cell-based, DLD1 colon cancer, RT-qPCR, cherry-pick, dose response (AID 1053122); type: functional; conditions: Cancer cell lines
[18] = viability loss in A549 lung cells – cell-based, 24 h, CellTiter-Glo luminescence, cherry-picks, cytotoxicity control, dose response (AID 1053115); type: functional; conditions: A549, 24 h
[19] = cytotoxicity in MITF-independent A375 cells – cell-based, CellTiter-Glo luminescence, dry powder, set 4, counter-screen for MITF inhibitor project, dose response (AID 624364); type: functional; conditions: A-375;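 also: A375 melanoma cells are MITF independent so this is a counter screen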
[20] = viability loss in MITF-independent A375 cells – cell-based, CellTiter-Glo luminescence, dry powder, set 2, counter-screen for MITF inhibitor project, dose response (AID 624489); type: functional; conditions: A-375;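 also: actives are compounds lowering A375 viability meaning general cytotoxicity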

NS3, sequence (A3EZJ3 whole entry): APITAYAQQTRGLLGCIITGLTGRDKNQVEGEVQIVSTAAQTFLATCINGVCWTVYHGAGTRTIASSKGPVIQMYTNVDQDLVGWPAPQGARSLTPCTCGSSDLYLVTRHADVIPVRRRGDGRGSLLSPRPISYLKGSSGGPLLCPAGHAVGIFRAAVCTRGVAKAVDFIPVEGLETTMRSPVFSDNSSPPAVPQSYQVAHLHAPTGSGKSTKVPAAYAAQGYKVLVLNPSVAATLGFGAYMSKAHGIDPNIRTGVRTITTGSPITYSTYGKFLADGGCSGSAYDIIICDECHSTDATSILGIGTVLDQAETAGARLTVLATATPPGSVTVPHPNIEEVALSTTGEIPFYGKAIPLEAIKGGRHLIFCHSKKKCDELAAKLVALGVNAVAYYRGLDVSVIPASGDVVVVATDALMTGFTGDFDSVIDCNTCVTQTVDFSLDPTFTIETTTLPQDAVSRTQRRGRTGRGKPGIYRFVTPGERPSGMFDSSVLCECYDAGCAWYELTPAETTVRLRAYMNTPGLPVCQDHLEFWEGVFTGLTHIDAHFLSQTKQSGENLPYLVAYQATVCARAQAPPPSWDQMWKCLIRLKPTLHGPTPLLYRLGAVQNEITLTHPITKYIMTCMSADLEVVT

Cc1ccc(C)n1-c1ccc(C(=O)O)c(O)c1
IC50 (NS3): 1.85 µM (inactive)
AC50 [1]: > 70 µM (inactive)

O=C(C1CC1)N1C[C@@H]2N[C@H](C1)[C@@H]2c1ccc(-c2cccc(F)c2)cc1
AC50 (Paired box protein Pax-8): 6.38 µM (active)
AC50 [2]: 21.1 µM (active)
AC50 [3]: 27 µM (active)
AC50 [4]: 3.9 µM (active)
AC50 [5]: 19.6 µM (active)
AC50 [6]: 26.7 µM (active)
AC50 [7]: 12.5 µM (active)
AC50 [8]: 6.56 µM (active)
AC50 [9]: 21.2 µM (active)
AC50 [10]: 28.1 µM (active)
AC50 [11]: 0.9 µM (active)
AC50 [12]: 23.2 µM (active)
AC50 [13]: 2.2 µM (active)
AC50 [14]: 0.778 µM (active)
AC50 [15]: 1.04 µM (active)

COc1ccc(S(=O)(=O)Nc2ccc3c(c2)C(=O)N([C@H](C)CO)C[C@@H](C)[C@@H](CN(C)Cc2ccc(C(F)(F)F)cc2)OCCCC[C@@H](C)O3)cc1
AC50 (Paired box protein Pax-8): 7.09 µM (active)
AC50 [16]: 51.2 µM (active)
AC50 [3]: 27.9 µM (active)
AC50 [6]: 65.2 µM (active)
AC50 [9]: 30.6 µM (active)

C[C@@H]1C/C=C/C[C@@H](c2cccc(Cl)c2)NC(=O)[C@H](Cc2ccccc2)N(C)C(=O)c2ccccc2O1.C[C@@H]1C/C=C\C[C@@H](c2cccc(Cl)c2)NC(=O)[C@H](Cc2ccccc2)N(C)C(=O)c2ccccc2O1
AC50 [17]: 0.492 µM (active)

CCOC(=O)[C@@H]1[C@@H]2C=C[C@]3(O2)[C@H](C(=O)NCc2ccccc2)N(CCCCCCO)C(=O)[C@@H]13
AC50 [18]: 48.1 µM (active)

C=CCNC1=C(N2CCOCC2)C(=O)c2ccccc2C1=O
AC50 [19]: 34.1 µM (active)
AC50 [20]: 9.04 µM (active)
